Reference: patent US9113629B2, “4-amino-6-(4-substituted-phenyl)-picolinates and 6-amino-2-(4-substituted-phenyl)-pyrimidine-4-carboxylates and their use as herbicides” (DOW AGROSCIENCES LLC, priority 2013, dated 2015)
Read-outs that look alike come from different tables or passages of the source.

Tests used:
[1] = tested on: Key Broadleaf Weed and Crop Species; assay: Post-emergent Test II herbicidal activity (Table 5); assay type: in vivo; conditions: post-emergence, 336 h, post-emergent, 14 days after application; for pest or weed control at 70 g/ha: 70 g ai/ha; for pest or weed control at 140 g/ha: 140 g ai/ha
Method in brief: (§1)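 Test species were raised 7–21 d under greenhouse conditions until reaching the first or second true leaf, sprayed with formulated compound at 187 L/ha, and kept subirrigated to avoid wash-off. Fourteen days later, damage was rated visually on a 0–100% scale against untreated plants.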

[2] = tested on: Key Grass and Sedge Weeds as well as Grass Crops; assay: Post-emergent Test II herbicidal activity (Table 6); assay type: in vivo; conditions: post-emergence, 336 h; for pest or weed control at 70 g/ha: application rate 70 g ai/ha; for pest or weed control at 140 g/ha: application rate 140 g ai/ha
Method in brief: as §1

[3] = ABUTH: velvetleaf (Abutilon theophrasti), read-out: Visual Growth Reduction (%) 14 Days After Application ABUTH
[4] = AMARE: redroot pigweed (Amaranthus retroflexus), read-out: Visual Growth Reduction (%) 14 Days After Application AMARE
[5] = BRSNN: oilseed-rape, canola (Brassica napus), read-out: Visual Growth Reduction (%) 14 Days After Application BRSNN
[6] = CHEAL: lambsquarters (Chenopodium album), read-out: Visual Growth Reduction (%) 14 Days After Application CHEAL
[7] = EPHHL: wild poinsettia (Euphorbia heterophylla), read-out: Visual Growth Reduction (%) 14 Days After Application EPHHL
[8] = HELAN: sunflower (Helianthus annuus), read-out: Visual Growth Reduction (%) 14 Days After Application HELAN
[9] = VIOTR: wild pansy (Viola tricolor), read-out: Visual Growth Reduction (%) 14 Days After Application VIOTR
[10] = Triticum aestivum, TRZSS (wheat), read-out: Visual Growth Reduction (%) 14 Days After Application, TRZSS
[11] = CYPES: yellow nutsedge (Cyperus esculentus), read-out: Visual Growth Reduction (%) 14 Days After Application, CYPES
[12] = DIGSA: crabgrass (Digitaria sanguinalis), read-out: Visual Growth Reduction (%) 14 Days After Application, DIGSA
[13] = ECHCG: barnyardgrass (Echinochloa crus-galli), read-out: Visual Growth Reduction (%) 14 Days After Application, ECHCG
[14] = ORYSA: rice (Oryza sativa), read-out: Visual Growth Reduction (%) 14 Days After Application, ORYSA
[15] = SETFA: giant foxtail (Setaria faberi), read-out: Visual Growth Reduction (%) 14 Days After Application, SETFA
[16] = SORVU: grain sorghum (Sorghum vulgare), read-out: Visual Growth Reduction (%) 14 Days After Application, SORVU
[17] = ZEAMX: maize, corn (Zea mays), read-out: Visual Growth Reduction (%) 14 Days After Application, ZEAMX

Compound | pest or weed control at 70 g/ha [1, 3] [%] | pest or weed control at 140 g/ha [1, 3] [%] | pest or weed control at 70 g/ha [1, 4] [%] | pest or weed control at 140 g/ha [1, 4] [%] | pest or weed control at 70 g/ha [1, 5] [%] | pest or weed control at 140 g/ha [1, 5] [%] | pest or weed control at 70 g/ha [1, 6] [%] | pest or weed control at 140 g/ha [1, 6] [%] | pest or weed control at 70 g/ha [1, 7] [%] | pest or weed control at 140 g/ha [1, 7] [%] | pest or weed control at 70 g/ha [1, 8] [%] | pest or weed control at 140 g/ha [1, 8] [%] | pest or weed control at 70 g/ha [1, 9] [%] | pest or weed control at 140 g/ha [1, 9] [%] | pest or weed control at 70 g/ha [2, 10] [%] | pest or weed control at 140 g/ha [2, 10] [%] | pest or weed control at 70 g/ha [2, 11] [%] | pest or weed control at 140 g/ha [2, 11] [%] | pest or weed control at 140 g/ha [2, 12] [%] | pest or weed control at 70 g/ha [2, 13] [%] | also measured
Nc1c(Cl)c(C(=O)O)nc(-c2ccc(I)cc2)c1Cl [Compound 173] | 60 to 74 | 85 to 94 | 85 to 94 | 95 to 100 | 85 to 94 | 85 to 94 | 85 to 94 | 85 to 94 | 0 to 29 | 45 to 59 | 95 to 100 | 95 to 100 | 0 to 29 | 0 to 29 | 60 to 74 | 60 to 74 | 95 to 100 | 95 to 100 | 75 to 84 | 75 to 84 | pest or weed control at 70 g/ha [2, 12]: 60 to 74%; pest or weed control at 140 g/ha [2, 13]: 75 to 84%; pest or weed control at 70 g/ha [2, 14]: 0 to 29%; pest or weed control at 140 g/ha [2, 14]: 0 to 29%; pest or weed control at 70 g/ha [2, 15]: 75 to 84%; pest or weed control at 140 g/ha [2, 15]: 85 to 94%; pest or weed control at 70 g/ha [2, 16]: 75 to 84%; pest or weed control at 140 g/ha [2, 16]: 85 to 94%; pest or weed control at 70 g/ha [2, 17]: 60 to 74%; pest or weed control at 140 g/ha [2, 17]: 75 to 84%
COC(=O)c1nc(-c2cc(F)c(Br)cc2F)nc(N)c1OC [Compound 2] | 95 to 100 | 95 to 100 | 85 to 94 | 85 to 94 | 95 to 100 | 95 to 100 | 95 to 100 | 95 to 100 | 95 to 100 | 95 to 100 | 95 to 100 | 95 to 100 | 30 to 44 | 95 to 100 | 45 to 59 | 45 to 59 | 60 to 74 | 60 to 74 | 60 to 74 | 60 to 74 | pest or weed control at 140 g/ha [2, 13]: 60 to 74%; pest or weed control at 70 g/ha [2, 14]: 0 to 29%; pest or weed control at 140 g/ha [2, 14]: 0 to 29%; pest or weed control at 70 g/ha [2, 15]: 45 to 59%; pest or weed control at 140 g/ha [2, 15]: 60 to 74%; pest or weed control at 70 g/ha [2, 16]: 30 to 44%; pest or weed control at 140 g/ha [2, 16]: 60 to 74%; pest or weed control at 70 g/ha [2, 17]: 75 to 84%; pest or weed control at 140 g/ha [2, 17]: 75 to 84%
COC(=O)c1nc(-c2ccc(C#N)cc2)c(C)c(N)c1Cl [Compound 83, Methyl 4-amino-3-chloro-6-(4-cyanophenyl)-5-methylpicolinate] | 0 to 29 | 30 to 44 | 0 to 29 | 0 to 29 | 0 to 29 | 0 to 29 | 0 to 29 | 0 to 29 | 0 to 29 | 0 to 29 | 85 to 94 | 85 to 94 | 0 to 29 | 0 to 29 | 0 to 29 | 0 to 29 | 0 to 29 | 0 to 29 | 0 to 29 | 0 to 29 | pest or weed control at 70 g/ha [2, 12]: 0 to 29%; pest or weed control at 140 g/ha [2, 13]: 0 to 29%; pest or weed control at 70 g/ha [2, 14]: 0 to 29%; pest or weed control at 140 g/ha [2, 14]: 0 to 29%; pest or weed control at 70 g/ha [2, 15]: 0 to 29%; pest or weed control at 140 g/ha [2, 15]: 0 to 29%; pest or weed control at 70 g/ha [2, 16]: 0 to 29%; pest or weed control at 140 g/ha [2, 16]: 0 to 29%; pest or weed control at 70 g/ha [2, 17]: 0 to 29%; pest or weed control at 140 g/ha [2, 17]: 0 to 29%
Nc1c(F)c(-c2cc(F)c(Br)cc2F)nc(C(=O)O)c1Cl [Compound 42, 4-amino-6-(4-bromo-2,5-difluorophenyl)-3-chloro-5-fluoropicolinic acid] | 85 to 94 | 95 to 100 | 95 to 100 | 95 to 100 | 95 to 100 | 95 to 100 | 95 to 100 | 95 to 100 | 95 to 100 | 95 to 100 | 95 to 100 | 95 to 100 | 95 to 100 | 95 to 100 | 60 to 74 | 75 to 84 | 95 to 100 | 95 to 100 | 85 to 94 | 95 to 100 | pest or weed control at 70 g/ha [2, 12]: 75 to 84%; pest or weed control at 140 g/ha [2, 13]: 95 to 100%; pest or weed control at 70 g/ha [2, 14]: 30 to 44%; pest or weed control at 140 g/ha [2, 14]: 30 to 44%; pest or weed control at 70 g/ha [2, 15]: 95 to 100%; pest or weed control at 140 g/ha [2, 15]: 95 to 100%; pest or weed control at 70 g/ha [2, 16]: 95 to 100%; pest or weed control at 140 g/ha [2, 16]: 95 to 100%; pest or weed control at 70 g/ha [2, 17]: 75 to 84%; pest or weed control at 140 g/ha [2, 17]: 60 to 74%
